How the values were obtained:
Tg2576 mice [1] = test system: Tg2576 mice; parameters: method as in PMID 16192379; conditions: 100 mg/kg p.o., 3 h before training; cited from earlier work
[2] = test system: Aph1AL containing γ-secretase complexes; experiment: Cell-free AICD production from APP β-CTF (Western blot); type: biochemical, murine; conditions: 10 μM
Description: DAPT was used as a reference positive control for the assay. For each assay condition, a 5-μL microsomal fraction, containing 1% CHAPSO (3-[(3-cholamidopropyl)dimethylammonio]-2-hydroxy-1-propanesulfonate) from murine embryonic fibroblasts (MEF) lacking the Aph-1A, Aph-1B, and Aph-1C genes (triple knock out) and rescued with Aph-1AL, was prepared in a reaction mixture of 5 μL substrate (recombinant APP β-CTF 3-Flag-tagged) at 0.8 μM, 0.0125% phosphatidylethanolamine, 0.1%, phosphatidylcholine, 0.05% sphingomyelin, and 8.9 μL PIPES (piperazine-N,N′-bis[−ethanesulfonic acid]) buffer. […] For detection of AICD, one-half of the reaction mixture was purified by a methanol-chloroform extraction in order to remove lipids and hydrophobic proteins (e.g., APP β-CTF). This purified fraction was further analyzed by SDS-PAGE and Western blotting. AICD was detected with an ANTI-FLAG® antibody (Sigma-Aldrich). The other half of the reaction mixture was used to analyze the levels of Aβ1-40 and Aβ1-42 by AlphaLisa (Perkin Elmer, Waltham, MA).

Aβ42 = test system: Aβ42; parameters: method as in PMID 15304503; conditions: cited from earlier work
γ-secretase = experiment: APP CTF accumulation in H4-APP751 cell lysates (Western blot); type: cell-based, human; conditions: H4-APP751 cells, 16 h
Source text: Cells were lysed in situ and the resulting lysate cleared of nuclei by centrifugation, as described elsewhere. Samples were fractionated by SDS-PAGE on a 12% NuPage gel (Invitrogen), transferred to a nitrocellulose membrane, and immunoblotted with an anti-APP-CTF antibody (Sigma-Aldrich).

γ-secretase (EphA4) = experiment: EphA4 CTF accumulation in rat primary neocortical cultures (Western blot); conditions: 24 h, as low as 100 nM
Description: Protein concentration of the lysate was determined by the BCA method, and 30 μg of total protein were loaded on a 10% Bis-Tris gel (Invitrogen). EphA4 CTF was visualized using an anti-EphA4-CTF antibody (Abnova, Walnut, CA) and an IRDye800CW® secondary antibody (Rockland Immunochemicals, Inc., Gilbertsville, PA). Detection was performed using an Odyssey scanner (LiCor Biosciences) and blots quantified using ImageJ software (available at http://rsbweb.nih.gov/ij).

AD patients = test system: AD patients; parameters: method as in PMID 18695053, PMID 21222550, PMID 22323718; conditions: cited from earlier work
Tg2576 mice [3] = test system: Tg2576 mice; parameters: method as in PMID 10908610, PMID 12930788; conditions: diet of 375 ppm for 4–6 months; cited from earlier work

C[C@H](NC(=O)Cc1cc(F)cc(F)c1)C(=O)N[C@H](C(=O)OC(C)(C)C)c1ccccc1 [DAPT, N-(N-(3,5-difluorophenacetyl)-L-alanyl)-S-phenylglycine t-butyl ester, reference compound]
CFC cognitive deficit (Tg2576 mice [1]): rapidly improved the CFC cognitive deficit | production of AICD from APP β-CTF [2]: almost completely abolished

C[C@@H](C(=O)O)c1ccc(-c2ccccc2)c(F)c1 [Flurizan™]
IC50 (Aβ42): > 300 µM

C[C@H](NC(=O)[C@@H](O)c1cc(F)cc(F)c1)C(=O)N[C@@H]1C(=O)N(C)c2ccccc2-c2ccccc21 [LY-411,575, reference compound]
Full length APP (γ-secretase; 1 nM to 10 μM): not altered | accumulation of APP α- or β-CTFs (γ-secretase; concentration as low as 1 nM): led to their accumulation | EphA4 CTF accumulation (γ-secretase (EphA4)): led to EphA4 CTF accumulation

CC(C)[C@H](O)C(=O)N[C@@H](C)C(=O)N[C@@H]1C(=O)N(C)CCc2ccccc21 [Semegacestat]
toxicities in clinical trials in AD (AD patients): drug-related rashes, lightening of hair color, skin cancer, and more importantly, worsening of cognition and the ability to perform activities of daily living

CC(C)Cc1ccc(C(C)C(=O)O)cc1 (centres unmarked) [ibuprofen]
amyloid plaque load and inflammatory mediators (Tg2576 mice [3]): marked decrease

Source: article PMC3573960 (Molecular Neurodegeneration, 2012)
